Assay [1] concerns P388 lymphocytic leukemia. Put plainly: NCI murine P388 lymphocytic leukemia (PS system), in vivo. The protocol: Unit dosage forms of dolastatin 10 prepared according to selected compositions described in Example 1 were screened utilizing Protocol 1,200 described in Cancer Chemotherapy Reports, parts 3, Vol. 3, No. 2, September 1972, pp 9 et seq for lymphocytic leukemia P388. Dolastatin 10 provided a 69-102% life extension at 1-4 μg/Kg host body weight against the murine P388 lymphocytic leukemia.

For a further assay, the system named is P388 in vitro cell line. Kind of assay: P388 in vitro cell line growth inhibition. The assay is classed as cell-based, murine.
For assay [2], the system named is L1210 Lymphocytic Leukemia. Put plainly: L1210 lymphocytic leukemia, murine in vivo system.
In assay [3] the test system is B16 Melanoma. Put plainly: NCI murine B16 melanoma, in vivo. The procedure:
A unit dosage form of dolastatin 10, prepared according to Example 1, was challenged with B-16 murine melanoma and obtained a 42% to 138% life extension at 1.44 to 11.1 μg/Kg using the National Cancer Institute accepted protocol.

For the next assay, the system named is M5076 Ovary Sarcoma. Put plainly: M5076 ovary sarcoma, murine in vivo system.
Assay [4] concerns Human Melanoma Xenograph (LOX). Kind of assay: NCI human melanoma xenograph to nude mouse (LOX). The assay is classed as in vivo. The procedure: Unit dosage forms of dolastatin 10 were prepared according to Example 1 and were screened using accepted protocols of the National Cancer Institute. The preparation obtained a 17-67% cure rate at 3.25-26 μg/kg host body weight against NCI murine human melanoma xenograph.

Assay [5] has as its system Human Mammary Xenograph MX-1. Put plainly: Human mammary xenograph to nude mouse MX-1 (life extension). The assay is classed as in vivo.
Another assay deals with MX-1. Kind of assay: MX-1 tumor regression. Format: in vivo, human.
Assay [6] concerns Human Melanoma Xenograph (LOX). Put plainly: NCI human melanoma xenograph to nude mouse (LOX). Format: in vivo. The following applies: 52 μg/kg.
Assay [7] relates to B16 Melanoma. The following applies: 11 μg/kg; cited from earlier work.

Converted amounts (≈) assume the structure as drawn.

Consider `CC[C@H](C)[C@@H]([C@@H](CC(=O)N1CCC[C@H]1[C@H](OC)[C@@H](C)C(=O)N[C@@H](Cc1ccccc1)c1nccs1)OC)N(C)C(=O)[C@@H](NC(=O)[C@H](C(C)C)N(C)C)C(C)C` [Dolastatin 10], for which the T/C is 199 in [1] (2 μg/kg); 202 in [1] (4 μg/kg); 161 in assay [1] (8 μg/kg); 173 in [1] (13.5 μg/kg); “toxic” in [1] (08-27 μg/kg); 120 in [2] (1.63 μg/kg). In addition, the T/C is listed as 139 in assay [2] (3.25 μg/kg); 135 in assay [2] (6.5 μg/kg); 152 in assay [2] (13 μg/kg); “toxic” in assay [2] (26 μg/kg); 171 in the assay with B16 Melanoma [3] (3.4 μg/kg); 205 in the assay with B16 Melanoma [3] (4.0 μg/kg). Moreover, the T/C with B16 Melanoma [3] (6.67 μg/kg) is reported as 182; with B16 Melanoma [3] (11.11 μg/kg) it was 238; with M5076 Ovary Sarcoma (3.25 μg/kg), 151; with M5076 Ovary Sarcoma (6.5 μg/kg), 142; in the assay on M5076 Ovary Sarcoma (13 μg/kg) it was 166; in the assay with M5076 Ovary Sarcoma (24 μg/kg), “toxic”. The T/C entry is recorded as “toxic” in the assay on M5076 Ovary Sarcoma (26 μg/kg); 170 in assay [4] (3.25 μg/kg); 206 in assay [4] (6.5 μg/kg); 301 in assay [4] (13 μg/kg); 301 in [4] (26 μg/kg); “toxic” in [6]. In the assay on P388 in vitro cell line, the ED50 is 0.046 ng/mL (≈ 0.0586 nM). For the same compound, the cures is reported as 16.6% in assay [4] (6.5 μg/kg), 33.3% in [4] (13 μg/kg), 50% in assay [4] (26 μg/kg) and 66.6% in assay [6]. Also, the “curative response / cure rate” value in [4] (3.25-26 μg/kg) is listed as 17-67%. In addition, the “T/C (life extension)” value is given as 178 in assay [5] (6.25 μg/kg), 137 in [5] (13 μg/kg), “toxic” in assay [5] (26 μg/kg) and “toxic” in [5] (52 μg/kg). Also, the “MX-1 Tumor Regression, T/C” value with MX-1 (6.25 μg/kg) was found to be 69; in the assay on MX-1 (13 μg/kg), 61; in the assay on MX-1 (26 μg/kg) it was 50; with MX-1 (52 μg/kg), 14.
With dolastatin 1, in the assay on B16 Melanoma [7], the cure rate is on record as 33%.

The values above are taken from patent US4816444A, “Cell growth inhibitory substance” (priority 1987, dated 1989).
